The values that follow are results of earlier work, collected in US20230346830A1 (priority 2020, published 2023).

Data set [1] concerns severe acute respiratory syndrome SARS. The following applies: in vivo.
Data set [2] deals with broad range of microorganisms. The following applies: no less than 160 ppm, five hours of continuous exposure.
The conditions of data set [3]: 160 ppm for 30 min every 3.5 hours, intermittent.

Where two headings read alike, the source gives them in different places.

As to `[N]=O` [NO, Nitric oxide], the “survival of infected mice” value with influenza WSN/33 (administered prophylactically or post-influenza infection, 80 ppm continuous or 160 ppm intermittent) is recorded as “failed to improve survival”. Moreover, the “lung viral load between experimental groups” value in the data set with influenza WSN/33 (influenza-infected mice) is “No difference”. In addition, the “effect on the virus” value in the data set on influenza WSN/33 (influenza-infected mice, continuously at 80 ppm or intermittently at 160 ppm for 30 minutes followed by 3½ hours of breathing air) is “no effect”. Moreover, in data set [1], the arterial oxygen saturation entry was “improved”; the lung infiltrates result was “decreased the spread and intensity”. Further, in data set [2], the “antimicrobial response in vitro” value was “non-specific antimicrobial response”. Further, the methemoglobinemia entry in data set [3] is reported as “could prevent methemoglobinemia”. The “replication cycle of SARS CoV” value in the data set on SARS CoV is reported as “specifically inhibits”.
With `CC(=O)N[C@H](C(=O)O)C(C)(C)SN=O` (racemic) [SNAP, S-nitroso-N-acetylpenicillamine], the “inhibition of the virus replication cycle compared with cytokine treatment” value in the data set with SARS CoV (50 μM SNAP) is reported as “same level of inhibition”. Further, the “reduction in the yield of progeny virus” value with SARS CoV (100 μM SNAP) is 2 log. Moreover, the “viral RNA production” value in the data set with SARS CoV (400 μM SNAP) is “significantly inhibited”. The “inhibitory effect on yield of progeny virus” value in the data set on SARS CoV (400 μM SNAP, compared with 100 μM) is listed as “even more pronounced”. Besides, the “replication cycle of SARS CoV” value with SARS CoV (concentration-dependent) is on record as “significantly inhibited”.
